Experimental data as given in patent US6888001B2, “Pyridyl ethers and thioethers as ligands for nicotinic acetylcholine receptor and its therapeutic application” (priority 1998, dated 2005).
Like-named read-outs stand apart in the source and are kept apart here.

Tests used:
[1] = biological target: T1, α4β2 nAChR (Rattus norvegicus, UniProt P09483+P12390); experiment: Binding of 3H-cytisine to α4β2 nAChR, crude synaptic membranes; conditions: for inhibition at 10 µM: read-out: α4β2 % Inhibition at 10 μM
T1 construct: crude synaptic membrane preparations from rat cerebral cortex, striatum and hippocampus; from tissue; host or cells: rat cerebral cortex, striatum and hippocampus (crude synaptic membranes, P2 fraction)
T1 sequence (P09483 31-630): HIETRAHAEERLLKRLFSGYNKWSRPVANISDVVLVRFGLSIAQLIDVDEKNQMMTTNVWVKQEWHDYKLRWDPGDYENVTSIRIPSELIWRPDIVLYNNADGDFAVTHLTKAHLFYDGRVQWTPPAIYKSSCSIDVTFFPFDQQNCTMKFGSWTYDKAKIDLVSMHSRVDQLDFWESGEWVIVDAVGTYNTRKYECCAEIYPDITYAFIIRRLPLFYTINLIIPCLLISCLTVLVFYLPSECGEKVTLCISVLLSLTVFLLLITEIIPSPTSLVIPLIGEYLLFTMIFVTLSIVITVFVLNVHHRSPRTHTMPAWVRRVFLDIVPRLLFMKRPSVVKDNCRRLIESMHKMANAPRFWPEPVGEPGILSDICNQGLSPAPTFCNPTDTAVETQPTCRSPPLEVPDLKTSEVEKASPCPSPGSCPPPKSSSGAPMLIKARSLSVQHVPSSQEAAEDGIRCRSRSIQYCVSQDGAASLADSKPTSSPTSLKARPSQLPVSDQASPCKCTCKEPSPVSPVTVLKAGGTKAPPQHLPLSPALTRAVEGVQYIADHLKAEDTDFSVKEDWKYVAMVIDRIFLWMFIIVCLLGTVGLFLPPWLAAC
T1 sequence (P12390 25-500): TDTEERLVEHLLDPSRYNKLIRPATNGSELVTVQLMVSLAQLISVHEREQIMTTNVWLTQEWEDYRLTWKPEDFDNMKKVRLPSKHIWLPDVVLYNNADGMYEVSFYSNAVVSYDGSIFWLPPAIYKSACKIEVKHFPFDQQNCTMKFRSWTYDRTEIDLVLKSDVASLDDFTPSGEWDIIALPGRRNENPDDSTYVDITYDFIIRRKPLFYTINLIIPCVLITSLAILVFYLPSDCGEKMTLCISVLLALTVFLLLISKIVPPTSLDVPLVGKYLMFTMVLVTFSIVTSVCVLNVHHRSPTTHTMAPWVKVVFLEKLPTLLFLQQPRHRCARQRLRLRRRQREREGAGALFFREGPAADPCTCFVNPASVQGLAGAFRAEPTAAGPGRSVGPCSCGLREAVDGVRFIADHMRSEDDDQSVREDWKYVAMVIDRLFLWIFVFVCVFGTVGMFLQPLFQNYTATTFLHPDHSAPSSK
Protocol: α4β2 Nicotinic Acetylcholine Receptor (α4β2 nAChR)
In Vitro Protocol for Determination of α4β2 nAChR Binding Potencies of Ligands
Binding of ^3H-cytisine to neuronal nicotinic acetylcholine receptors was accomplished using crude synaptic membrane preparations from rat cerebral cortex, striatum and hippocampus. Either fresh or frozen membranes were homogenized in ˜50 volumes of 10 mM HEPES (N-2-Hydroxyethylpiperazine-N′-2-Ethanesulfonic acid, pH 7.4) and centrifuged at 42,000×g. The P2 fraction was resuspended in ˜40 volumes of 10 mM HEPES and centrifuged at 42,000×g. This step was repeated and the P2fraction was resuspended in 25 volumes (e.g. 1 g of original into 25 mL) of a medium comprising Na^+-HEPES buffer (10 mM, pH 7.4), 5 mM MgCl2, 0.01% powdered bovine serum albumin (BSA) and 100 mM NaCl. To initiate the binding reaction, test compound (100 μL), Na-HEPES buffered incubation medium (400 μL), ^3H-cytisine (250 μL) and the suspension of biological membranes (250 μL) were mixed, and then the samples were incubated at 23° C. for 40 minutes. The binding reaction was terminated by filtration using a Brandel Cell Harvester and the amount of bound ^3H-cytisine for each sample was quantitated using a Wallac LKB 1205 Betaplate liquid scintillation counter. All test compounds were screened at 10 μM in quadruplicate. Nonspecific binding was determined using 10 μM (+)-epibatidine to block all binding of ^3H-cytisine to the α4β2 nAChR. The activity of each test compound was calculated as follows. After correcting for nonspecific binding, the percent inhibition of specific binding (total binding minus nonspecific) was calculated. Each active compound was further tested at five concentrations to generate a concentration-inhibition curve. The IC50 values were determined using the Prism (GraphPad Software) nonlinear regression program.

[2] = biological target: T2, α7 nAChR (Rattus norvegicus, UniProt Q05941); experiment: Binding of 3H-MLA to α7 nAChR, crude synaptic membranes; conditions: read-out: α7 (% Inh @ 10 uM)
T2 construct: crude synaptic membrane preparations from rat cerebral cortex, striatum and hippocampus; from tissue; host or cells: rat cerebral cortex, striatum and hippocampus (crude synaptic membranes, P2 fraction)
T2 sequence (Q05941 23-502): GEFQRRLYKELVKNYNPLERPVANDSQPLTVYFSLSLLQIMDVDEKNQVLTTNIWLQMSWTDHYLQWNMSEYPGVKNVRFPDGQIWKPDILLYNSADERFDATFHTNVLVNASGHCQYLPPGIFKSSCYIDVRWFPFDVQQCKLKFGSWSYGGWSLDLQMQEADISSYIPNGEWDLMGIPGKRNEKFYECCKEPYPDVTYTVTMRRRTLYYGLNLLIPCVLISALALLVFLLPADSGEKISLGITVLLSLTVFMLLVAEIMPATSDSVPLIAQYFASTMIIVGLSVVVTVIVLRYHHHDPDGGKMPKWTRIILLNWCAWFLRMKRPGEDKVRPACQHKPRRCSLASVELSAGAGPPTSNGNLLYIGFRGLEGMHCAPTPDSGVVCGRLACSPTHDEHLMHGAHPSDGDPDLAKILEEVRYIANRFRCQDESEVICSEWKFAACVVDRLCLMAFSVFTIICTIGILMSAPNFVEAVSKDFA
Protocol: α7 Nicotinic Acetylcholine Receptor (α7nAChR)
In Vitro Protocol for Determination of α7nAChR Binding Potencies of Ligands
Binding of ^3H-MLA (methylcaconitine) to neuronal nicotinic acetylcholine receptors was accomplished using crude synaptic membrane preparations from rat cerebral cortex, striatum and hippocampus. Either fresh or frozen membranes were homogenized in ˜50 volumes of 10 mM HEPES (N-2-Hydroxyethylpiperazine-N′-2-Ethanesulfonic acid, pH 7.4) and centrifuged at 42,000×g. The P2 fraction was resuspended in ˜40 volumes of 10 mM HEPES and centrifuged at 42,000×g. This step was repeated and the P2 fraction was resuspended in 25 volumes (e.g. 1 g of original into 25 mL) of a medium comprised of Na^+-HEPES buffer (10 mM, pH 7.4), 5 mM MgCl2, 0.01% powdered bovine serum albumin (BSA), and 100 mM NaCl. To initiate the binding reaction, test compound (100 μL), Na-HEPES buffered incubation medium (400 μL), ^3H-MLA (250 μL) and the suspension of biological membranes (250 μL) were mixed, and then the samples were incubated at 23° C. for 40 minutes., The binding reaction was terminated by filtration using a Brandel Cell Harvester, and the amount of bound ^3H-MLA for each sample was quantitated using a Wallac LKB 1205 Betaplate liquid scintillation counter. All test compounds were screened at 10 μM in quadruplicate. Nonspecific binding was determined using 10 μM MLA to block all binding of ^3H-MLA to the α7 nAChR. The activity of each test compound was calculated as follows. After correcting for nonspecific binding, the percent inhibition of specific binding (total binding minus nonspecific) was calculated. Each active compound was further tested at five concentrations to generate a concentration-inhibition curve. The IC50 values were determined using the Prism (GraphPad Software) nonlinear regression program.

[3] = 3H-cytisine, rat cerebral cortex, striatum and hippocampus membranes, IC50 from five concentrations, read-out: α4β2

Compound	inhibition at 10 µM [1]	inhibition at 10 µM [2]	IC50 [1, 3]	IC50 [1]
CCN1CCC(Oc2cccnc2)C1 (stereo not drawn) [Example 8, 3-(1-Ethyl-3-pyrrolidinyloxy)-pyridine]	71%	18%	–	–
CN1CC[C@@H](Oc2cccnc2)C1 [Example 5, 3-(1-Methyl-3-(R)-pyrrolidinyloxy)-pyridine]	–	20%	544 nM	–
c1cncc(O[C@H]2CCCNC2)c1 [Example 11, 3-(3-(S)-Piperidinyloxy)-pyridine]	–	86%	–	673 nM
CC(C)N1CCC(Oc2cccnc2)C1 (stereo not drawn) [Example 9, 3-(1-Isopropyl-3-pyrrolidinyloxy)-pyridine]	30%	19%	–	–
COc1cccc(-c2cc(O[C@@H]3CCNC3)cnc2Cl)c1 [Example 14, 2-Chloro-3-(3-methoxy)phenyl-5-(3-(R)-pyrrolidinyloxy)-pyridine]	–	33%	58 nM	–
N#Cc1ccc(-c2cc(O[C@@H]3CCNC3)cnc2Cl)cc1 [Example 13, 2-Chloro-3-(4-cyano)phenyl-5-(3-(R)-pyrrolidinyloxy)-pyridine]	–	26%	22 nM	–
Clc1ccc(O[C@@H]2CCNC2)cn1 [Example 6, 2-Chloro-5-(3-(R)-pyrrolidinyloxy)-pyridine]	–	20%	–	466 nM
Clc1ncc(O[C@@H]2CCNC2)cc1Br [Example 12, 2-Chloro-3-bromo-5-(3-(R)-pyrrolidinyloxy)-pyridine]	–	11%	94 nM	–
C[Si](C)(C)C#Cc1ccc(-c2cc(O[C@@H]3CCNC3)cnc2Cl)cc1 [Example 15, 2-Chloro-3-(4-trimethylsilylethynyl)phenyl-5-(3-(R)-pyrrolidinyloxy)-pyridine]	–	22%	–	25 nM
c1cncc(OC2CCNC2)c1 (stereo not drawn) [Example 2, 3-(3-Pyrrolidinyloxy)-pyridine]	–	-15%	209 nM	–
c1cncc(OC2CCCNC2)c1 (stereo not drawn) [Example 10, 3-(3-Piperidinyloxy)-pyridine]	–	19%	204 nM	–
c1cncc(O[C@H]2CCNC2)c1 [Example 3, 3-(3-(S)-Pyrrolidinyloxy)-pyridine]	–	5%	449 nM	–
CN1CCC(Oc2cccnc2)C1 (stereo not drawn) [Example 7, 3-(1-Methyl-3-pyrrolidinyloxy)-pyridine]	–	22%	92 nM	–
c1cncc(O[C@@H]2CCNC2)c1 [Example 4, 3-(3-(R)-Pyrrolidinyloxy)-pyridine]	–	11%	45 nM	–
c1cncc(OC2CNC2)c1 [Example 1, 3-(3-Azetidinyloxy)-pyridine]	46%	21%	–	–
